Assay [1] deals with male mice of BALB/c line. The assay is described as follows: Mice behavior in tail suspension test. The assay is classed as in vivo. The conditions noted are these: after 4 days injections in dose of 0.1 mg/kg, 6 minutes. On the procedure: Antidepressant action of compounds of the general formula 1 in test “Mice behavior in tail suspension test”. Experiments were carried out in aged male mice of BALB/c line weighing 20-24 g. Mice were suspended by tail with scotch tape on holder over horizontal surface at height of about 40 cm, and for 6 minutes of total duration of complete immobility episodes which is considered to be a measure of depressively-like state was registered. Automated computerized detection of motion with videosystem and Any-maze program were used in test.

The test system of assay [2] is male mice of BALB/c line. Put plainly: Porsolt's Forced Swim Test. The assay is classed as in vivo. Particulars: after 4 days injections in dose 1 mg/kg, last 5 minutes of the test. On the procedure:
Antidepressant action of antagonists of the general formula 1 in Porsolt's Forced Swim Test. Test apparatus represented a plastic vessel filled with water up to height of 18 cm at 20-22° C. Experiments were carried out in aged male mice of BALB/c line weighing 20-24 g.
Mice were placed in water and for 15 minutes duration of immobile hanging in water so called behavioural despaire, which is considered to be a measure of depressively-like state, was registered. The last 5 minutes of the test were used for analysis. Automated computerized detection of motion with videosystem and Any-maze program were used in the test.

Assay [3] has as its system male mice of BALB/c line. The assay is described as follows: Passive Avoidance of mice in Shuttle Chamber (memory disturbed by Scopolamine). The class given is in vivo. Particulars: intraperitoneally 30 minutes before training, in combination with Scopolamine. How it is done: Nootropic action (enhancement of memory disturbed by Scopolamine) of compounds of the general formula 1 in test “Passive Avoidance of mice in Shuttle Chamber”. Shuttle chamber (Ugo Basile, Italy) consisted of two sections was used. […] Sections were connected through a hole which could be overlapped by vertical door. The floor was made of transverse metal bars on which DC current impulses could be fed. Experiments were carried out in aged male mice of BALB/c line weighing 20-24 g. On the first day of experiment 30 minutes before training mice were injected intraperitoneally with physiological solution, (0.3 mg/kg) or Scopolamine in combination with compound 3.6(1).HCl, or Scopolamine in combination with compound 2.5(1).HCl. Each group consisted of 8 animals. Animals were placed in light section, and latent period of the first entry into the dark chamber was registered. Then the vertical door was closed and the animal was punished by 0.6 mA DC current for 3 seconds. After that the animal was taken back to its home cage. In 22-24 hours the same animal was placed again in light section of shuttle chamber and latent period of its first entry into dark section, total time of its stay in light section and number of entries into dark section was registered. Each monitoring lasted for 5 minutes. […]

The target of another assay is Serotoninergic 5-HT6 (Homo sapiens, UniProt P50406). The assay is described as follows: competitive radioligand binding, Serotoninergic 5-HT6. Particulars: compound concentration of 1 μM; read-out: radio-labelled ligand displacement, Serotoninergic 5-HT6. The essentials:
(§1)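 Single-point screen: compound 1 μM, competitive radioligand binding; readout = quantitative displacement of labelled ligand.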

The test system of the next assay is Adrenergic α1B. Put plainly: competitive radioligand binding, Adrenergic α1B. Particulars: compound concentration of 1 μM. The method, boiled down: as §1
Another assay concerns the target Serotoninergic 5-HT7 (Homo sapiens, UniProt P34969). Put plainly: competitive radioligand binding, Serotoninergic 5-HT7. Particulars: compound concentration of 1 μM; read-out: radio-labelled ligand displacement, Serotoninergic 5-HT7. The method, boiled down:
as §1

For another assay, the system named is Mice of SHK line. The assay is described as follows: Prepulse inhibition of startle response in mice (Apomorphine). Particulars: 1 mg/kg, subcutaneously 60 minutes before the test.
Another assay addresses Serotoninergic 5-HT2B (Homo sapiens, UniProt P41595). Put plainly: competitive radioligand binding, Serotoninergic 5-HT2B. The conditions noted are these: read-out: radio-labelled ligand displacement, Serotoninergic 5-HT2B. The essentials:
as §1

A further assay addresses Dopaminergic D2S (Homo sapiens, UniProt P14416). Put plainly: competitive radioligand binding, Dopaminergic D2S. Particulars: compound concentration of 1 μM; read-out: radio-labelled ligand displacement, Dopaminergic D2S. The method, boiled down:
as §1

The next assay addresses T1, Serotoninergic 5-HT1A (Homo sapiens, UniProt P08908).
T1 sequence (P08908 1-422): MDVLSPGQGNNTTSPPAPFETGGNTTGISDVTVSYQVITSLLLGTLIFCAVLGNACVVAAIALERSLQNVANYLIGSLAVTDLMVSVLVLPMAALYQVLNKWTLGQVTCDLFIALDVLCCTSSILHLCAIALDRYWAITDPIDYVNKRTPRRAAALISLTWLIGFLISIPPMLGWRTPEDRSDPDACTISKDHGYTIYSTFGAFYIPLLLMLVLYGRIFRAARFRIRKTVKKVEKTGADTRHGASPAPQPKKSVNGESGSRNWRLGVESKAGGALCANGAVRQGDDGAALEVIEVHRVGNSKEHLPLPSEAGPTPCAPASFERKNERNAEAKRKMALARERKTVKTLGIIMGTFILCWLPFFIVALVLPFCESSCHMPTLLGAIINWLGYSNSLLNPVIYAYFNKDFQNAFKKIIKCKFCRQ
Put plainly: competitive radioligand binding, Serotoninergic 5-HT1A. The conditions noted are these: compound concentration of 1 μM; read-out: radio-labelled ligand displacement, Serotoninergic 5-HT1A. The method, boiled down:
as §1

For a further assay, the target named is Histaminergic H2 (Homo sapiens, UniProt P25021). Put plainly: competitive radioligand binding, Histaminergic H2. The conditions noted are these: compound concentration of 1 μM; read-out: radio-labelled ligand displacement, Histaminergic H2. The method, boiled down:
as §1

In another assay the target is Histaminergic H1 (Homo sapiens, UniProt P35367). Put plainly: competitive radioligand binding, Histaminergic H1. The conditions noted are these: compound concentration of 1 μM; read-out: radio-labelled ligand displacement, Histaminergic H1. The essentials: as §1
Sequence of Histaminergic H1 (P35367 whole entry): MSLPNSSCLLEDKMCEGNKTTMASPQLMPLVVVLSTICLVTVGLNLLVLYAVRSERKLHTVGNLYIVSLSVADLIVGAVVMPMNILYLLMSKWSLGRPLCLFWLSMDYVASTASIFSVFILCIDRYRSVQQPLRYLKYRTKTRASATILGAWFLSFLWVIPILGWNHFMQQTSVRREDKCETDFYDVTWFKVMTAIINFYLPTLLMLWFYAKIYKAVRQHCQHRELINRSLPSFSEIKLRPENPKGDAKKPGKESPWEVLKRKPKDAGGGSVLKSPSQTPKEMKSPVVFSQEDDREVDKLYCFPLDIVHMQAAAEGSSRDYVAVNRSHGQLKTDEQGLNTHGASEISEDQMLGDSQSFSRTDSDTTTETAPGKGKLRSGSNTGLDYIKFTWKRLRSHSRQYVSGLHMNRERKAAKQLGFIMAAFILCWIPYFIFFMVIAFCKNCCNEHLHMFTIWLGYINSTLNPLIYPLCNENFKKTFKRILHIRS

Sequence of Serotoninergic 5-HT6 (P50406 whole entry): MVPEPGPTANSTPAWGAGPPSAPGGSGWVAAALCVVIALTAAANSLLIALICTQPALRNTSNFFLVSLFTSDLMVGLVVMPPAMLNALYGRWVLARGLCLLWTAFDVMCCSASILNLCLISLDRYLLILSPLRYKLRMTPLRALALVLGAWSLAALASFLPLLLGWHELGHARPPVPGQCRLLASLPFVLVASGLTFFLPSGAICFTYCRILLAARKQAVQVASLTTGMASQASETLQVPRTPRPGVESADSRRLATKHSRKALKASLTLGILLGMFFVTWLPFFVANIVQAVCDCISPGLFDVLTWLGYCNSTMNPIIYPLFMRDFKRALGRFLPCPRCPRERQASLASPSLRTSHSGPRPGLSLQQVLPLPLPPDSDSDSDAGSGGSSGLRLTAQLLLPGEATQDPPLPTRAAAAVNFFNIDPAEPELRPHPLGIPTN
Sequence of Histaminergic H2 (P25021 whole entry): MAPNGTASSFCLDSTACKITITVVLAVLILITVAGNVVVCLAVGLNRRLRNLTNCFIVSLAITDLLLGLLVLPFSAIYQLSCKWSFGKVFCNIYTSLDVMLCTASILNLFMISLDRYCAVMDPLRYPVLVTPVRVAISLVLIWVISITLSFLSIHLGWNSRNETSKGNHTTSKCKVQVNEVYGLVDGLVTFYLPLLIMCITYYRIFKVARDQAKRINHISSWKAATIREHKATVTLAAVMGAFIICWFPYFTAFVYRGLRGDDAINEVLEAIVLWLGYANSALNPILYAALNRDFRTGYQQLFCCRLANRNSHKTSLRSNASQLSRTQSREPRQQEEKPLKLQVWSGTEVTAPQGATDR
Sequence of Serotoninergic 5-HT2B (P41595 whole entry): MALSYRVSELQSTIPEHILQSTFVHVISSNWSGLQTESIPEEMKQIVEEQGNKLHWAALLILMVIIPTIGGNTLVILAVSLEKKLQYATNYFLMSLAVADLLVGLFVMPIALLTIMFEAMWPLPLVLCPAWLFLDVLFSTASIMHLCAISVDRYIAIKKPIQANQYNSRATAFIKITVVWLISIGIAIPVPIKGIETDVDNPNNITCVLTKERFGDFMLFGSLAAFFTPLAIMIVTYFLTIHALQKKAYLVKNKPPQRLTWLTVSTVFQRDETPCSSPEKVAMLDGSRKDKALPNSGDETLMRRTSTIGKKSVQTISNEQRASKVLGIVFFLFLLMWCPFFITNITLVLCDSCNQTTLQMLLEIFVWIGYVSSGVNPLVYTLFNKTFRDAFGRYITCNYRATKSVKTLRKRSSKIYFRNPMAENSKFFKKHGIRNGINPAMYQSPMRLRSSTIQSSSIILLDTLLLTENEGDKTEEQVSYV
Sequence of Dopaminergic D2S (P14416 1-414 isoform P14416-2): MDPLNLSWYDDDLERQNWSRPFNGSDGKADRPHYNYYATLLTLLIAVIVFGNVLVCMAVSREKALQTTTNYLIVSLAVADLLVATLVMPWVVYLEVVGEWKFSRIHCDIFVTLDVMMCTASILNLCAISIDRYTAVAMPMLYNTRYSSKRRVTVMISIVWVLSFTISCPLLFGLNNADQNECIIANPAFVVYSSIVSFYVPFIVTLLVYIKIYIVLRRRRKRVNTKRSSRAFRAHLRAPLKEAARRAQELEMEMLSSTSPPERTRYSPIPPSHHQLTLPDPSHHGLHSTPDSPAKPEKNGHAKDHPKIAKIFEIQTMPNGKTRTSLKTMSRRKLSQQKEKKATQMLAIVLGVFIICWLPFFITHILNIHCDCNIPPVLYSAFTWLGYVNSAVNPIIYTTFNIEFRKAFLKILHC
Sequence of Serotoninergic 5-HT7 (P34969 whole entry): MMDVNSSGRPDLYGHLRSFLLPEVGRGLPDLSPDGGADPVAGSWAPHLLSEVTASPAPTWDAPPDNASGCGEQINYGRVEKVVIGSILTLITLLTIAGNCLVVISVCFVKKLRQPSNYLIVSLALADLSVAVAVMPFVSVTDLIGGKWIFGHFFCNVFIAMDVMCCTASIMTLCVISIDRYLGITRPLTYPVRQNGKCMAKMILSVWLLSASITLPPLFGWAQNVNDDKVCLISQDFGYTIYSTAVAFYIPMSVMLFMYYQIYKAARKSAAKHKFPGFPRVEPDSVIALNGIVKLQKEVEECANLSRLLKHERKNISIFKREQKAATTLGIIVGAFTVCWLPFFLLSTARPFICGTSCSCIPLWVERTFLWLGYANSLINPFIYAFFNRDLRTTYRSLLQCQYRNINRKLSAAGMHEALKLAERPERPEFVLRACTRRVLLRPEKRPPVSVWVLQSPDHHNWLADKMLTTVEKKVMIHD

For the compound `Cc1cc2c3c(n(CCc4ccccc4)c2s1)CCN(C)C3.Cl` [3.6(1)•HCl, 2,5-Dimethyl-8-(2-phenylethyl)-5,6,7,8-tetrahydro-4H-thieno[3′,2′:4,5]pyrrolo[3,2-c]pyridine hydrochloride], the “Antidepressant action: duration of complete immobility” value in the assay on male mice of BALB/c line [1] is on record as “decrease the duration of complete immobility of mice”. Also, in the assay on male mice of BALB/c line [2], the “Antidepressant action: duration of immobile hanging in water” value is given as “decrease this index”. Also, the “Nootropic action: training disturbed by Scopolamine” value with male mice of BALB/c line [3] is reported as “improve training disturbed by Scopolamine”. Further, the inhibition at 1 µM at Serotoninergic 5-HT6 was 103%; at Serotoninergic 5-HT7, 99%; on Serotoninergic 5-HT2B it was 92%; at Dopaminergic D2S, 86%; at Serotoninergic 5-HT1A, 48%; at Histaminergic H2, 96%. The inhibition at 1 µM on Histaminergic H1 was 98%. This compound came in with a radio-labelled ligand displacement, Adrenergic α1B in the assay on Adrenergic α1B of 99%. Further, in the assay with Mice of SHK line, the “Antipsychotic activity: disturbance of prepulse inhibition of startle caused by Apomorphine” value was “prevented disturbance of prepulse inhibition of startle caused by Apomorphine”.

For the origin of these results see patent US20130267551A1, “SUBSTITUTED HYDROGENATED THIENO-PYRROLO[3,2-C]PYRIDINE, LIGANDS, A PHARMACEUTICAL COMPOSITION AND A METHOD FOR USING THE ABOVE” (ALLA CHEM, LLC, priority 2010, published 2013).
